Patent US12503475B2 (Centessa Pharmaceuticals (UK) Limited, priority 2020, dated 2025)

Target: T1, human orexin type 2 receptor (hOX2R) (Homo sapiens, UniProt O43614)
T1 construct: expressed in transfected cells
T1 sequence (O43614 1-444): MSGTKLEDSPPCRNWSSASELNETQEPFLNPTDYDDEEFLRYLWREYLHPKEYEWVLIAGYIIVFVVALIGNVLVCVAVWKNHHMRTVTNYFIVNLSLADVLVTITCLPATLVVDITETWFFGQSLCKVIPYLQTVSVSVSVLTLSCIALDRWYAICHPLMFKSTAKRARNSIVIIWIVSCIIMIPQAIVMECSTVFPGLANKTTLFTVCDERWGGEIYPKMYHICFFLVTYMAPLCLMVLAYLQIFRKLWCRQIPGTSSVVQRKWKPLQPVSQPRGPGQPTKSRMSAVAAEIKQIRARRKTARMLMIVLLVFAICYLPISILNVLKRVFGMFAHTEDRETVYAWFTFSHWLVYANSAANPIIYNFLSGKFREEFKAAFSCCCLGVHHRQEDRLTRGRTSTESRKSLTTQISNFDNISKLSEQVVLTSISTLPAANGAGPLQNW
Experiment: Measurement of orexin type 2 receptor agonist activity (FLIPR calcium fluorescence)
Format: cell-based
Conditions: CHO cells expressing hOX2R, FLIPR calcium fluorescence; for EC50: read-out: hOx2 pEC50 (converted); for Emax: CHO, read-out: hOx2 Emax (%)
How it was run: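 Agonism was read as fluorescence in cells stably expressing human OX2R. E. is the response at 10 μM relative to orexin A as full agonist (100%).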

SMILES	EC50 [nM]	Emax [%]
CN(C(=O)N1CC2(CC2)[C@H](NS(C)(=O)=O)[C@@H]1Cc1cccc(-c2ccccc2)c1F)[C@H]1CCOC1 [Compound 321, (6S,7S)-6-((2-fluoro-[1,1′-biphenyl]-3-yl)methyl)-N-methyl-7-(methylsulfonamido)-N-((S)-tetrahydrofuran-3-yl)-5-azaspiro[2.4]heptane-5-carboxamide]	10 to 100	90 to 100
CN(CC(F)F)C(=O)N1CC2(CC2)[C@H](NS(C)(=O)=O)[C@@H]1Cc1cccc(-c2ccccc2)c1F [Compound 81, (6S,7S)-N-(2,2-difluoroethyl)-6-((2-fluoro-[1,1′-biphenyl]-3-yl)methyl)-N-methyl-7-(methylsulfonamido)-5-azaspiro[2.4]heptane-5-carboxamide]	0.0794 to 1	90 to 100
COC1(C(=O)N2CC3(CC3)[C@H](NS(=O)(=O)CF)[C@@H]2Cc2cc(F)cc(-c3ccccc3)c2F)CC1 [Compound 404, N-((6S,7S)-6-((2,5-difluoro-[1,1′-biphenyl]-3-yl)methyl)-5-(1-methoxycyclopropane-1-carbonyl)-5-azaspiro[2.4]heptan-7-yl)-1-fluoromethanesulfonamide]	1 to 10	90 to 100
COC1(CNC(=O)N2CC3(CC3)[C@H](NS(=O)(=O)CF)[C@@H]2Cc2cccc(-c3ccccc3)c2F)CC1 [Compound 370, (6S,7S)-6-((2-fluoro-[1,1′-biphenyl]-3-yl)methyl)-7-((fluoromethyl)sulfonamido)-N-((1-methoxycyclopropyl)methyl)-5-azaspiro[2.4]heptane-5-carboxamide]	0.0794 to 1	90 to 100
C[C@@H](F)C(=O)N1CC2(CC2)[C@H](NS(=O)(=O)CF)[C@@H]1Cc1cccc(-c2cc(F)cc(F)c2)c1F [Compound 233, 1-fluoro-N-((6S,7S)-5-((R)-2-fluoropropanoyl)-6-((2,3′,5′-trifluoro-[1,1′-biphenyl]-3-yl)methyl)-5-azaspiro[2.4]heptan-7-yl)methanesulfonamide]	10 to 100	80 to 90
O=C([C@H]1C[C@@H](F)C1)N1CC2(CC2)[C@H](NS(=O)(=O)C(F)F)[C@@H]1Cc1cccc(-c2ccccc2)c1F [Compound 201, 1,1-difluoro-N-((6S,7S)-6-((2-fluoro-[1,1′-biphenyl]-3-yl)methyl)-5-((1s,3s)-3-fluorocyclobutane-1-carbonyl)-5-azaspiro[2.4]heptan-7-yl)methanesulfonamide]	1 to 10	90 to 100
CN(C)C(=O)N1CC2(CC2)[C@H](NS(C)(=O)=O)[C@@H]1Cc1cc(F)cc(-c2ccccc2)c1F [Compound 354, (6S,7S)-6-((2,5-difluoro-[1,1′-biphenyl]-3-yl)methyl)-N,N-dimethyl-7-(methylsulfonamido)-5-azaspiro[2.4]heptane-5-carboxamide]	10 to 100	90 to 100
CC(C)(F)S(=O)(=O)N[C@@H]1[C@H](Cc2cccc(-c3ccccc3)c2F)N(C(=O)[C@H]2CCO2)CC12CC2 [Compound 398, 2-fluoro-N-((6S,7S)-6-((2-fluoro-[1,1′-biphenyl]-3-yl)methyl)-5-((R)-oxetane-2-carbonyl)-5-azaspiro[2.4]heptan-7-yl)propane-2-sulfonamide]	1 to 10	90 to 100
O=C([C@H](O)C(F)(F)F)N1CC2(CC2)[C@H](NS(=O)(=O)CF)[C@@H]1Cc1cccc(-c2ccccc2)c1 [Compound 94, N-((6S,7S)-6-([1,1′-biphenyl]-3-ylmethyl)-5-((S)-3,3,3-trifluoro-2-hydroxypropanoyl)-5-azaspiro[2.4]heptan-7-yl)-1-fluoromethanesulfonamide]	1 to 10	90 to 100
CS(=O)(=O)N[C@@H]1[C@H](Cc2cccc(-c3cc(F)cc(F)c3)c2F)N(C(=O)C2CCC2)CC12CC2 [Compound 33, N-((6S,7S)-5-(cyclobutanecarbonyl)-6-((2,3′,5′-trifluoro-[1,1′-biphenyl]-3-yl)methyl)-5-azaspiro[2.4]heptan-7-yl)methanesulfonamide]	0.0794 to 1	90 to 100
CC(C)(O)C(=O)N1CC2(CC2)[C@H](NS(=O)(=O)C2CC2)[C@@H]1Cc1cccc(-c2cc(F)cc(F)c2)c1F [Compound 230, N-((6S,7S)-5-(2-hydroxy-2-methylpropanoyl)-6-((2,3′,5′-trifluoro-[1,1′-biphenyl]-3-yl)methyl)-5-azaspiro[2.4]heptan-7-yl)cyclopropanesulfonamide]	1 to 10	90 to 100
COCC1(C(=O)N2CC3(CC3)[C@H](NS(C)(=O)=O)[C@@H]2Cc2cccc(-c3ccccc3)c2F)CC1 [Compound 386, N-((6S,7S)-6-((2-fluoro-[1,1′-biphenyl]-3-yl)methyl)-5-(1-(methoxymethyl)cyclopropane-1-carbonyl)-5-azaspiro[2.4]heptan-7-yl)methanesulfonamide]	1 to 10	90 to 100
O=C([C@H]1CCO1)N1CC2(CC2)[C@H](NS(=O)(=O)CF)[C@@H]1Cc1cccc(-c2cc(F)ccc2F)c1F [Compound 169, 1-fluoro-N-((6S,7S)-5-((R)-oxetane-2-carbonyl)-6-((2,2′,5′-trifluoro-[1,1′-biphenyl]-3-yl)methyl)-5-azaspiro[2.4]heptan-7-yl)methanesulfonamide]	1 to 10	90 to 100
CN(C)S(=O)(=O)N[C@@H]1[C@H](Cc2cccc(-c3ccccc3)c2F)N(C(=O)[C@H](O)C(F)(F)F)CC12CC2 [Compound 119, N-((6S,7S)-6-((2-fluoro-[1,1′-biphenyl]-3-yl)methyl)-5-((S)-3,3,3-trifluoro-2-hydroxypropanoyl)-5-azaspiro[2.4]heptan-7-yl)-N,N-dimethylsulfuric diamide]	0.0794 to 1	90 to 100
O=C([C@H](O)CF)N1CC2(CC2)[C@H](NS(=O)(=O)C(F)F)[C@@H]1Cc1cccc(-c2cccc(F)c2)c1F [Compound 380, N-((6S,7S)-6-((2,3′-difluoro-[1,1′-biphenyl]-3-yl)methyl)-5-((S)-3-fluoro-2-hydroxypropanoyl)-5-azaspiro[2.4]heptan-7-yl)-1,1-difluoromethanesulfonamide]	0.0794 to 1	90 to 100
CS(=O)(=O)N[C@@H]1[C@H](Cc2cccc(-c3ccccc3)c2)N(C(=O)[C@H]2C[C@@H](F)C2)CC12CC2 (racemic) [Compound 308, N-(-6-([1,1′-biphenyl]-3-ylmethyl)-5-((1s,3R)-3-fluorocyclobutane-1-carbonyl)-5-azaspiro[2.4]heptan-7-yl)methanesulfonamide]	10 to 100	90 to 100
O=C(NCC1(F)CC1)N1CC2(CC2)[C@H](NS(=O)(=O)CF)[C@@H]1Cc1cccc(-c2cc(F)cc(F)c2)c1F [Compound 412, (6S,7S)-N-((1-fluorocyclopropyl)methyl)-7-((fluoromethyl)sulfonamido)-6-((2,3′,5′-trifluoro-[1,1′-biphenyl]-3-yl)methyl)-5-azaspiro[2.4]heptane-5-carboxamide]	1 to 10	90 to 100
CC(C)NC(=O)N1CC2(CC2)[C@H](NS(C)(=O)=O)[C@@H]1Cc1cccc(-c2ccccc2)c1F [Compound 85]	0.0794 to 1	90 to 100
